Test results from US7592308B2, “F3W variants of the lantibiotic mersacidin and its use” (priority 2004, dated 2009).
Values after ≈ are worked out from the molar mass of the structure shown. “Also recorded” adds a separate entry of the source. Like-named read-outs stand apart in the source and are kept apart here. Square brackets hold non-standard residues; d marks the D form. Ends that are not written are not given here. Dhb = C/C=C(\N)C(=O)O; Dha = C=C(N)C(=O)O

Key:
[1] = system: M. luteus; conditions: data of Szekat et al., cited from earlier work; for fold greater MIC measured against M. luteus: compared with mersacidin
[2] = system: E. faecium 19579; assay: MIC, two-fold serial dilution in broth; type: cell-based, Enterococcus faecium; conditions: duplicate
Description: (§1) A selection of the variants produced in Example 1 above were tested further for activity against a range of bacteria. Minimum inhibitory concentrations (MICs) for all organisms with the exception of Streptococcus pneumoniae were determined by two-fold serial antibiotic dilutions in Mueller-Hinton broth (MHB) supplemented with 50 μg/ml calcium as calcium chloride dihydrate. Minimum inhibitory concentrations (MICs) for S. pneumoniae were determined by two-fold serial antibiotic dilutions in Brain Heart Infusion (BHI) broth supplemented with 50 μg/ml calcium as calcium chloride dihydrate. Antimicrobial agent stock solutions were prepared and stored according to NCCLS standard M7-A6.
(§2) Actively growing broth cultures were diluted to contain […] by adjusting to an absorbance of 0.2-0.3 at 600 nm, equivalent to the McFarland 0.5 standard. They were then diluted a further 1:100 in broth. The assays were performed in duplicate in sterile 96-well microtitre plates in a total volume of 200 μl (160 μl broth, 20 μl antibiotic, 20 μl inoculum) in a concentration range from 64 μg/ml to 0.06 μg/ml. The 12th well of the microtitre plate contained no antimicrobial agent. Vancomycin was used as a reference antibiotic for quality control. Plates were incubated aerobically, shaking, for 18-20 hours at 37° C. with the MIC defined as the lowest concentration of drug that produced no visible growth.

[3] = system: E. faecium 7131121; assay: MIC, two-fold serial dilution in broth; type: cell-based, Enterococcus faecium; conditions: duplicate
Description: as §1, §2

[4] = system: E. faecalis 29212; assay: MIC, two-fold serial dilution in broth; type: cell-based, Enterococcus faecalis; conditions: duplicate
Description: as §1, §2

[5] = system: S. aureus SH1000; type: cell-based, Staphylococcus aureus
Description: as §1, §2

[6] = system: S. pneumoniae R6; type: cell-based, Streptococcus pneumoniae; conditions: Table 8B; BHI broth + 50 μg/ml calcium; duplicate
Description: as §1, §2

[7] = system: M. luteus 4698; type: cell-based, Micrococcus luteus
Description: as §1, §2

[8] = system: S. aureus R33; type: cell-based, Staphylococcus aureus; conditions: Table 8A; MHB + 50 μg/ml calcium; duplicate
Description: as §1, §2

[9] = system: S. pyogenes 13608; type: cell-based, Streptococcus pyogenes
Description: (§3) MIC tests were performed with some of the variants of Example 2 on a range of other organisms. The results are shown in Tables 9 and 10 (figures in μg/ml): […]

[10] = system: S. pyogenes 16205; type: cell-based, Streptococcus pyogenes
Description: as §3

[11] = system: S. aureus 1012-13 MRSA; type: cell-based, Staphylococcus aureus
Description: as §3

[12] = system: S. aureus COL MRSA; type: cell-based, Staphylococcus aureus
Description: as §3

[13] = system: S. aureus CS; type: cell-based, Staphylococcus aureus
Description: as §3

[14] = system: S. aureus SG511; type: cell-based, Staphylococcus aureus
Description: as §3

[15] = system: E. faecium 4147 VRE; type: cell-based, Enterococcus faecium
Description: as §3

[16] = system: E. faecium 4147-1; type: cell-based, Enterococcus faecium
Description: as §3

[17] = Table 8A, MHB + 50 μg/ml calcium
[18] = Table 8A, MHB + 50 μg/ml calcium, duplicate
[19] = Table 8B, MHB + 50 μg/ml calcium, duplicate

## mersacidin E17A (CTFTLPGGGGVCTLT[Dha]ACIC; thioether (positions not given here); not fully specified; UniProt P43683 49-68, looked up, variant E17A) [mersacidin variant produced by Szekat et al]
[1]
  antibacterial activity (in words): essentially inactive; also recorded: no antibacterial activity
  fold greater MIC measured against M. luteus: about 1,000 fold

## C=C1NC(=O)C2NC(=O)[C@H](CC(C)C)NC(=O)C(NC(=O)[C@@H]3CSC(C)C(NC(=O)[C@H](Cc4ccccc4)NC(=O)C4NC(=O)[C@@H](N)CSC4C)C(=O)N[C@@H](CC(C)C)C(=O)N4CCC[C@H]4C(=O)NCC(=O)NCC(=O)N[C@@H](CC(N)=O)C(=O)NCC(=O)N[C@@H](C(C)C)C(=O)N3)C(C)SC[C@H](NC(=O)[C@H](CCC(=O)O)NC1=O)C(=O)N[C@@H]([C@@H](C)CC)C(=O)NC=CSC2C (stereo partly shown) [G9N]
[2]; [17]
  MIC E. faecium 19579: >64, >64 μg/ml
[3]; [17]
  MIC E. faecium 7131121: >64, >64 μg/ml
[4]; [17]
  MIC E. faecalis 29212: >64, >64 μg/ml
[5]; [18]
  MIC S. aureus SH1000: >64, >64 μg/ml
[6]
  MIC S. pneumoniae R6: >64, >64 μg/ml

## G8Q: mersacidin variant (CTFTLPGQGGVCTLT[Dha]ECIC; thioether (positions not given here); not fully specified; UniProt P43683 49-68, looked up, variant G8Q)
[2]; [17]
  MIC E. faecium 19579: >64, >64 μg/ml
[3]; [17]
  MIC E. faecium 7131121: >64, >64 μg/ml
[4]; [17]
  MIC E. faecalis 29212: >64, >64 μg/ml
[5]; [18]
  MIC S. aureus SH1000: >64, >64 μg/ml

## G10Y: mersacidin variant (CTFTLPGGGYVCTLT[Dha]ECIC; thioether (positions not given here); not fully specified; UniProt P43683 49-68, looked up, variant G10Y)
[5]; [18]
  MIC S. aureus SH1000: >64, >64 μg/ml
[7]; [19]
  MIC M. luteus 4698: <4, <4 μg/ml
[6]
  MIC S. pneumoniae R6: <4, <4 μg/ml

## C=C1NC(=O)C2NC(=O)[C@H](CC(C)C)NC(=O)C(NC(=O)[C@@H]3CSC(C)C(NC(=O)[C@H](Cc4ccccc4)NC(=O)C4NC(=O)[C@@H](N)CSC4C)C(=O)N[C@@H](CC(C)C)C(=O)N4CCC[C@H]4C(=O)NCC(=O)N[C@@H](Cc4c[nH]cn4)C(=O)NCC(=O)NCC(=O)N[C@@H](C(C)C)C(=O)N3)C(C)SC[C@H](NC(=O)[C@H](CCC(=O)O)NC1=O)C(=O)N[C@@H]([C@@H](C)CC)C(=O)NC=CSC2C (stereo partly shown) [G8H]
[2]; Table 11
  MIC E. faecium 19579: >64, >64 μg/ml
[3]; Table 11
  MIC E. faecium 7131121: >64, >64 μg/ml
[4]; Table 11
  MIC E. faecalis 29212: >64, >64 μg/ml
[5]; SH1000
  MIC S. aureus SH1000: 64, >64 μg/ml

## C=C1NC(=O)C2NC(=O)[C@H](CC(C)C)NC(=O)C(NC(=O)[C@@H]3CSC(C)C(NC(=O)[C@H](Cc4ccccc4)NC(=O)C4NC(=O)[C@@H](N)CSC4C)C(=O)N[C@@H](CC(C)C)C(=O)N4CCC[C@H]4C(=O)NCC(=O)NCC(=O)NCC(=O)N[C@@H](C)C(=O)N[C@@H](C(C)C)C(=O)N3)C(C)SC[C@H](NC(=O)[C@H](CCC(=O)O)NC1=O)C(=O)N[C@@H]([C@@H](C)CC)C(=O)NC=CSC2C (stereo partly shown) [G10A]
[2]; [17]
  MIC E. faecium 19579: >64, >64 μg/ml
[3]; [17]
  MIC E. faecium 7131121: >64, >64 μg/ml
[4]; [17]
  MIC E. faecalis 29212: >64, >64 μg/ml
[8]
  MIC S. aureus R33: >64, >64 μg/ml
[5]; [18]
  MIC S. aureus SH1000: >64, >64 μg/ml

## CC[C@H](C)[C@@H]1NC(=O)[C@@H]2CSC(C)C(NC(=O)[C@@H]3CSC(C)C(NC(=O)[C@H](Cc4ccccc4)NC(=O)C4NC(=O)[C@@H](N)CSC4C)C(=O)N[C@@H](CC(C)C)C(=O)N4CCC[C@H]4C(=O)NCC(=O)NCC(=O)NCC(=O)NCC(=O)N[C@@H](C(C)C)C(=O)N3)C(=O)N[C@@H](CC(C)C)C(=O)NC(C(=O)N[C@@H](Cc3c[nH]cn3)C(=O)N[C@@H](CCC(=O)O)C(=O)N2)C(C)SC=CNC1=O (stereo partly shown) [Dha16H]
[7]; 4698
  MIC M. luteus 4698: 4 µg/mL (≈ 2.11 µM)
[9]
  MIC S. pyogenes 13608: 4 µg/mL (≈ 2.11 µM)
[10]
  MIC S. pyogenes 16205: 4 µg/mL (≈ 2.11 µM)
[11]
  MIC S. aureus 1012-13 MRSA: 64 µg/mL (≈ 33.8 µM)
[12]
  MIC S. aureus COL MRSA: 64 µg/mL (≈ 33.8 µM)
[13]
  MIC S. aureus CS: 64 µg/mL (≈ 33.8 µM)
[14]
  MIC S. aureus SG511: 8 µg/mL (≈ 4.22 µM)
[15]; 4147 VRE
  MIC E. faecium 4147 VRE: 128 µg/mL (≈ 67.6 µM)
[16]; Table 9, 16 h
  MIC E. faecium 4147-1: 128-16 h, μg/ml
[16]; Table 9, 23 h
  MIC E. faecium 4147-1: 256-23 h μg/ml

## mersacidin L14I Dha16Dhb (CTFTLPGGGGVCTIT[Dhb]ECIC; thioether (positions not given here); not fully specified; UniProt P43683 49-68, looked up, variant L14I S16T) [mersacidin double variant]
[3]; Table 18, double variants
  MIC E. faecium 7131121: >64, >64 μg/ml
[4]; Table 18, double variants
  MIC E. faecalis 29212: >64, >64 μg/ml

## G7A: mersacidin variant (CTFTLPAGGGVCTLT[Dha]ECIC; thioether (positions not given here); not fully specified; UniProt P43683 49-68, looked up, variant G7A)
[3]; [17]
  MIC E. faecium 7131121: >64, >64 μg/ml
[4]; [17]
  MIC E. faecalis 29212: >64, >64 μg/ml
[5]; [18]
  MIC S. aureus SH1000: >64, >64 μg/ml
[6]
  MIC S. pneumoniae R6: >64, >64 μg/ml

## C=C1NC(=O)C2NC(=O)[C@H](CC(C)C)NC(=O)C(NC(=O)[C@@H]3CSC(C)C(NC(=O)[C@H](Cc4ccccc4)NC(=O)C4NC(=O)[C@@H](N)CSC4C)C(=O)N[C@@H](CC(C)C)C(=O)N[C@@H](C)C(=O)NCC(=O)NCC(=O)NCC(=O)NCC(=O)N[C@@H](C(C)C)C(=O)N3)C(C)SC[C@H](NC(=O)[C@H](CCC(=O)O)NC1=O)C(=O)N[C@@H]([C@@H](C)CC)C(=O)NC=CSC2C (stereo partly shown) [P6A]
[7]; 4698
  MIC M. luteus 4698: 4 µg/mL (≈ 2.22 µM)
[9]
  MIC S. pyogenes 13608: 4 µg/mL (≈ 2.22 µM)
[10]
  MIC S. pyogenes 16205: 8 µg/mL (≈ 4.44 µM)
[11]
  MIC S. aureus 1012-13 MRSA: 32 µg/mL (≈ 17.8 µM)
[12]
  MIC S. aureus COL MRSA: 64 µg/mL (≈ 35.6 µM)
[13]
  MIC S. aureus CS: 32 µg/mL (≈ 17.8 µM)
[14]
  MIC S. aureus SG511: 8 µg/mL (≈ 4.44 µM)
[15]; Table 9, 16 h
  MIC E. faecium 4147 VRE: 128-16 h, μg/ml
[15]; Table 9, 24 h
  MIC E. faecium 4147 VRE: 256-24 h μg/ml
[16]; 4147-1
  MIC E. faecium 4147-1: 256 µg/mL (≈ 142 µM)

## S16I: mersacidin variant produced by Szekat et al. (CTFTLPGGGGVCTLTIECIC; thioether (positions not given here); not fully specified; UniProt P43683 49-68, looked up, variant S16I)
[1]
  antibacterial activity (in words): essentially inactive
  fold greater MIC measured against M. luteus: about 1,000 fold

## G7N: mersacidin variant (CTFTLPNGGGVCTLT[Dha]ECIC; thioether (positions not given here); not fully specified; UniProt P43683 49-68, looked up, variant G7N)
[4]; [17]
  MIC E. faecalis 29212: >64, >64 μg/ml
[7]; [19]
  MIC M. luteus 4698: <4, <4 μg/ml

## F3L: mersacidin variant produced by Szekat et al. (CTLTLPGGGGVCTLT[Dha]ECIC; thioether (positions not given here); not fully specified; UniProt P43683 49-68, looked up, variant F3L)
[1]
  MIC against M. luteus: 12.5 µg/mL
  antibacterial activity (in words): weakly active
